Earlier results in patent US20110118243A1, “ANTI-INFLAMMATORY DRUG DELIVERY SYSTEM” (priority 2008, published 2011).

Details: in horses

CCCCC1C(=O)N(c2ccccc2)N(c2ccccc2)C1=O [phenylbutazone, 4-butyl-diphenyl-3,5-pyrazoidinedione]
Plasma half-life: 5 to 6 h
